Measured values: patent publication US4689344A, “Long-chain α,ω-dicarboxylic acids and derivatives thereof and pharmaceutical compositions containing them” (Epis S.A., priority 1981, dated 1987)
“And” between values parts separate entries of the source, which are not always exact repeats. Identical values can stand only once.

Columns and labels:
[1] = test system: liver total lipid, triglyceride and cholesterol; assay: 3H2O incorporation into liver lipids in vivo (total lipid, triglyceride, cholesterol); set-up: species or system rat; conditions: n = 5
Protocol: ^3 H2 O incorporation into liver lipids in vico (in μmole/gr liver) was tested in rats fed for 3 days a single daily meal of a high carbohydrate diet containing 0.25% of the active compound of Example 4.
The procedure of Experiment I(b) was repeated for 5 days.
(§1) Rats that have previously been starved for 48 hours, were meal-fed or fed ad libitum a high carbohydrate, fat-free diet for 3-5 days, the diet being supplemented with the active compounds of formula (I) at dosages of 25-250 mg per Kg body weight per day. The biological effects in-vivo were evaluated by following the rate of incorporation of injected radioactive precursors (mainly ^3 H2 O) into liver and adipose tissue lipids and comparing the results observed with those obtained from groups of non-treated rats ("control groups"). Dose-response curves were plotted.

[2] = test system: GT of non-diabetic Psamomys; assay: Effect on GT of non-diabetic Psamomys; format: in vivo
[3] = test system: glucose tolerance; assay: Glucose tolerance test (GTT) in diabetic Psamomys Obesus; format: in vivo; set-up: Sum of glucose values at 0, 1, 2, 3h, Treatment / Sum of glucose values at 0, 1, 2, 3h, Elimination of Treatment: unit not given here; conditions: for Sum of glucose values at 0, 1, 2, 3h, Treatment: 0.1% in diet 30-70 days; for Sum of glucose values at 0, 1, 2, 3h, Elimination of Treatment: after return to normal diet
Protocol: (§2) Psamomys Obesus were fed "Amrod 935" Purina Chow diet supplemented with 0.1% of the active compound of Example 4, ad libitum, for periods of 80 or 140 days. The biological effects of the active compound in vivo were evaluated as reported in the following experiments.
Six Psamomys Obesus fed Purina Chow diet ad libitum were selected for their diabetic trait by following their glucose tolerance test (GTT). The selected animals were then treated by feeding the same Purina diet supplemented with 0.1% of the active compound of Example 4 for periods varying between 30-70 days. The GTT was followed periodically throughout this period, as well as for 50 more days after the drug-supplemented diet had been replaced with the normal diet. A diagram of the GTT curves obtained with one representative animal is shown in FIG. 6 of the attached drawings. The GTT values for all six animals are shown in the following Table VIII as the sum of the glucose values observed at 0^h, 1^h, 2^h, 3^h.

[4] = test system: serum lipids; assay: Serum lipids in rats fed high carbohydrate, fat-free diet; format: in vivo, rat
Protocol: as §1
The hypolipidemic effect was followed by measuring the triglycerides and cholesterol content in serum of treated rats as compared to non-treated rats.
Rats starved for 48 hours were fed a high carbohydrate, fat-free diet ad libitum for 3 or 5 days, supplemented with the active compound of Example 4 at the proportions shown in the following Table III. The serum lipids were determined in the treated rats and compared to a non-treated control group.
(§3) Rats starved for 48 hours were fed a high carbohydrate, fat-free diet supplemented with 0.25% of the active compound of Example 5 for 3 days ad libitum.

[5] = Body weight of Psamomys Obesus; format: in vivo; conditions: Table VII; for Weight gain (gr) average: 0.1% in diet
Protocol: as §2
The above experiment was repeated with groups of young and old Psamomys and the body weight determined.

[6] = test system: oxidation of glucose, palmitate or acetate to CO2; assay: Oxidation of glucose, palmitate or acetate to CO2 in vivo; set-up: species or system rat; conditions: rats, additional experiments
[7] = test system: diabetes induced by steptozocin; assay: Effect on diabetes induced by steptozocin in rats; format: in vivo, rat
[8] = test system: serum lipids; assay: Serum triglyceride and cholesterol levels in Psamomys Obesus; format: in vivo; conditions: Table VI, young animals, 0.1% in diet, 140 days, n = 7
Protocol: as §2
Groups of young and old Psamomys were fed the above described diet for 140 and 80 days, respectively, whereafter the serum triglyceride and cholesterol levels were determined.

[9] = test system: liver triglyceride; assay: Liver triglyceride content of rats fed carbohydrate-rich diet; format: in vivo, rat; conditions: for Reduction in liver triglyceride content (FIG. 4): carbohydrate-rich diet, compared to control group=100%
[10] = LD50 in rats (p.o.); conditions: rat, in vivo, po
[11] = test system: serum lipoprotein; assay: Serum lipoprotein profile; format: in vivo, rat
Protocol: as §3

[12] = test system: serum insulin; assay: Serum insulin levels in diabetic Psamomys Obesus; format: in vivo; conditions: non-treated diabetic animals 40-200 uu/ml
[13] = test system: neutral fat in liver and adipose tissue and liver cholesterol; assay: 3H2O incorporation into neutral fat in liver and adipose tissue and into liver cholesterol in vivo; set-up: species or system rat
Protocol: as §1
Incorporation of ^3 H2 O into neutral fat in liver and adipose tissue and into liver cholesterol in vivo.
^3 H2 O incorporation into liver and adipose tissue lipids in vivo was tested in rats fed a high carbohydrate diet ad libitum for three days, supplemented with varying proportions (in percent of the diet) of the active compounds of Examples 4, 5 and 9. ^3 H2 O was then administered to the animals and the rates of incorporation of tritium (in μmole/gr/60 min) into various lipid fractions in liver and adipose tissue were determined and compared to the tritium incorporation under identical conditions in the control groups of rats.

SMILES: CC(C)(CCCCCCCCCCC(C)(C)CC(=O)O)CC(=O)O [Example 4, 3,3,14,14-Tetramethyl-hexadecane-1,16-dioic acid]
- 3H2O incorporation into liver cholesterol ([1]; Table I, 3 days, single daily meal, 0.25% in high carbohydrate diet, non-treated 2.7 ± 1.1): 0.8 ± 0.2 μmole/gr liver
- 3H2O incorporation into liver triglyceride ([1]; Table I, 3 days, single daily meal, 0.25% in high carbohydrate diet, non-treated 107 ± 21): 19 ± 2 μmole/gr liver
- 3H2O incorporation into liver total lipid ([1]; Table I, 3 days, single daily meal, 0.25% in high carbohydrate diet, non-treated 157 ± 34): 47 ± 5 μmole/gr liver
- 3H2O incorporation into liver cholesterol ([1]; Table II, 5 days, procedure of Experiment I(b), non-treated 2.8 ± 0.8): 1.4 ± 0.4 μmole/gr liver
- 3H2O incorporation into liver triglyceride ([1]; Table II, 5 days, procedure of Experiment I(b), non-treated 71 ± 12): 20 ± 7 μmole/gr liver
- 3H2O incorporation into liver total lipid ([1]; Table II, 5 days, procedure of Experiment I(b), non-treated 107 ± 18): 53 ± 13 μmole/gr liver
- Effect on GT of non-diabetic Psamomys [2]: affects neither
- Correction of the GTT curve ([3]; 0.1% in diet, 30-70 days): correction of the GTT curve in 5 or 6 test animals
- Sum of glucose values at 0, 1, 2, 3h, Treatment ([3]; Psamomys I, pretreatment 779, 1082): 364
- Sum of glucose values at 0, 1, 2, 3h, Treatment ([3]; Psamomys II, pretreatment 947, 980, 958): 442
- Sum of glucose values at 0, 1, 2, 3h, Treatment ([3]; Psamomys III, pretreatment 790): 296 and 329 and 326
- Sum of glucose values at 0, 1, 2, 3h, Elimination of Treatment ([3]; Psamomys III): 849
- Sum of glucose values at 0, 1, 2, 3h, Treatment ([3]; Psamomys IV, pretreatment 992): 358 and 336 and 465
- Sum of glucose values at 0, 1, 2, 3h, Elimination of Treatment ([3]; Psamomys IV): 1049
- Sum of glucose values at 0, 1, 2, 3h, Treatment ([3]; Psamomys V, pretreatment 867): 434 and 257 and 388
- Sum of glucose values at 0, 1, 2, 3h, Elimination of Treatment ([3]; Psamomys V): 470
- Sum of glucose values at 0, 1, 2, 3h, Treatment ([3]; Psamomys VI, pretreatment 717): 555
- Diabetic trait after termination of the treatment ([3]; after termination of the treatment): revert to their original diabetic trait
- Serum triglycerides ([4]; Table III, 0.06% of diet, ad libitum 3 or 5 days, n = 5, non-treated 41 ± 6): 15 ± 4 mg %
- Serum cholesterol ([4]; Table III, 0.06% of diet, ad libitum 3 or 5 days, n = 5, non-treated 64 + 10): 38 ± 5 mg %
- Serum triglycerides ([4]; Table III, 0.15% of diet, ad libitum 3 or 5 days, n = 5, non-treated 41 ± 6): 21 ± 4 mg %
- Serum cholesterol ([4]; Table III, 0.15% of diet, ad libitum 3 or 5 days, n = 5, non-treated 64 + 10): 32 ± 5 mg %
- Serum triglycerides ([4]; Table III, 0.25% of diet, ad libitum 3 or 5 days, n = 5, non-treated 41 ± 6): 15 ± 4 mg %
- Serum cholesterol ([4]; Table III, 0.25% of diet, ad libitum 3 or 5 days, n = 5, non-treated 64 + 10): 31 ±3 mg %
- Decrease in serum cholesterol ([4]; summary, rats): 50%
- Decrease in serum glycerides ([4]; summary, rats): up to 60%
- Weight gain (gr) average ([5]; old animals, initial 254 ± 52, non-treated gain 11 ± 13): -26 ± 8 gr
- Weight gain (gr) average ([5]; young animals, n = 7, initial 92 ± 19, non-treated gain 57 ± 33): 36 ± 12 gr
- Weight gain (gr) ([5]; young animals, individual values, non-treated 38, 38, 40, 55, 116): 25 gr and 29 gr and 31 gr and 32 gr and 33 gr and 38 gr and 62 gr
- Siblings' weight grain (gr) ([5]; young animals, siblings a, non-treated sibling 55): 25 gr and 33 gr
- Siblings' weight grain (gr) ([5]; young animals, siblings b, non-treated sibling 116): 31 gr and 38 gr
- Oxidation of glucose, palmitate or acetate to CO2 in vivo [6]: does not affect
- Effect on diabetes induced by steptozocin [7]: affects neither
- Serum cholesterol ([8]; non-treated 65 ± 7): 46 ± 7 mg %
- Serum triglycerides ([8]; non-treated 205 ± 29): 62 ± 15 mg %
- Reduction in liver triglyceride content (FIG. 4) [9]: reduction in liver triglyceride content
- Decrease in the triglyceride content of the liver ([9]; summary, rats): 30-50%
- LD50 [10]: > 7000 mg/kg
- Change in the serum lipoprotein profile ([11]; summary, rats): significant change in the serum lipoprotein profile
- Serum insulin levels during the treatment period [12]: lower than 40 uu/ml
- Inhibition of in vivo incorporation of 3H2O into cholesterol in liver ([13]; 100 mg/Kg body wt/day): 50%
- Inhibition of in vivo incorporation of 3H2O into neutral fat (diglycerides, triglycerides) in liver ([13]; 100 mg/Kg body wt/day): 50%
- Inhibition of in vivo incorporation of 3H2O into cholesterol in liver ([13]; 250 mg/Kg body wt/day): 80%
- Inhibition of in vivo incorporation of 3H2O into neutral fat (diglycerides, triglycerides) in liver ([13]; 250 mg/Kg body wt/day): 80%
- In vivo incorporation of 3H2O into neutral fat in adipose tissue ([13]; adipose tissue): block

SMILES: CC(C)(CCCCCCCCCCCCC(C)(C)CC(=O)O)CC(=O)O [Example 5, 3,3,16,16-Tetramethyl-octadecane-1,18-dioic acid]
- Serum triglycerides ([4]; Table IV, 0.25% of diet, 3 days ad libitum, n = 9, non-treated 48 ± 6): 33 ± 3 mg %
- Serum cholesterol ([4]; Table IV, 0.25% of diet, 3 days ad libitum, n = 12, non-treated 80 ± 12): 40 ± 11 mg %
- Reduction in liver triglyceride content (FIG. 4) [9]: reduction in liver triglyceride content
- HDL (VLDL + LDL) ([11]; Table V, 0.25% of diet, 3 days, non-treated 1.05): 1.50
- LDL cholesterol ([11]; Table V, 0.25% of diet, 3 days, non-treated 19.00): 6.00 mg %
- VLDL cholesterol ([11]; Table V, 0.25% of diet, 3 days, non-treated 23.00): 10.00 mg %
- HDL cholesterol ([11]; Table V, 0.25% of diet, 3 days, non-treated 43.00): 24.00 mg %

SMILES: CC(C)(CCCCCCCCCCC(C)(C)C(Br)C(=O)O)C(Br)C(=O)O (centres unmarked) [Example 9, 2,15-Dibromo-3,3,14,14-tetramethyl-hexadecane-1,16-dioic acid]
- Reduction in liver triglyceride content (FIG. 4) [9]: reduction in liver triglyceride content
